Results published in BigSolDB 2.1.

For CNC[C@H](O)[C@@H](O)[C@H](O)[C@H](O)CO.Cc1c(Nc2ncccc2C(=O)O)cccc1C(F)(F)F, the solubility (mole fraction) (in acetone, 283.15 K) was 0.00077, the solubility (mole fraction) (in acetone, 288.15 K) was 0.000937 and the solubility (mole fraction) (in acetone, 293.15 K) was 0.00119. The solubility (mole fraction) (in acetone, 298.15 K) was 0.00158, the solubility (mole fraction) (in acetone, 303.15 K) was 0.00215 and the solubility (mole fraction) (in acetone, 308.15 K) was 0.00275. For the same molecule, the solubility (mole fraction) (in acetone, 313.15 K) was 0.00354, the solubility (mole fraction) (in acetone, 318.15 K) was 0.0048 and the solubility (mole fraction) (in acetone, 323.15 K) was 0.00698. The solubility (mole fraction) (in acetone, 328.15 K) was 0.0104, the solubility (mole fraction) (in acetonitrile, 283.15 K) was 3.16e-05 and the solubility (mole fraction) (in acetonitrile, 288.15 K) was 3.86e-05. The solubility (mole fraction) (in acetonitrile, 293.15 K) was 4.58e-05, the solubility (mole fraction) (in acetonitrile, 298.15 K) was 6.88e-05 and the solubility (mole fraction) (in acetonitrile, 303.15 K) was 0.000109. The solubility (mole fraction) (in acetonitrile, 308.15 K) was 0.000173, the solubility (mole fraction) (in acetonitrile, 313.15 K) was 0.00025 and the solubility (mole fraction) (in acetonitrile, 318.15 K) was 0.00035. It also gave a solubility (mole fraction) (in acetonitrile, 323.15 K) of 0.000517, a solubility (mole fraction) (in acetonitrile, 328.15 K) of 0.000733 and a solubility (mole fraction) (in ethanol, 283.15 K) of 0.00285. For the same molecule, the solubility (mole fraction) (in ethanol, 288.15 K) was 0.00353, the solubility (mole fraction) (in ethanol, 293.15 K) was 0.00448 and the solubility (mole fraction) (in ethanol, 298.15 K) was 0.00576. The solubility (mole fraction) (in ethanol, 303.15 K) was 0.00775, the solubility (mole fraction) (in ethanol, 308.15 K) was 0.0113 and the solubility (mole fraction) (in ethanol, 313.15 K) was 0.0162. The solubility (mole fraction) (in ethanol, 318.15 K) was 0.0228, the solubility (mole fraction) (in ethanol, 323.15 K) was 0.0345 and the solubility (mole fraction) (in ethanol, 328.15 K) was 0.0502. For the same molecule, the solubility (mole fraction) (in isopropanol, 283.15 K) was 0.000626, the solubility (mole fraction) (in isopropanol, 288.15 K) was 0.000759 and the solubility (mole fraction) (in isopropanol, 293.15 K) was 0.000924. For the same molecule, the solubility (mole fraction) (in isopropanol, 298.15 K) was 0.00118, the solubility (mole fraction) (in isopropanol, 303.15 K) was 0.00162 and the solubility (mole fraction) (in isopropanol, 308.15 K) was 0.00198. For the same molecule, the solubility (mole fraction) (in isopropanol, 313.15 K) was 0.00299, the solubility (mole fraction) (in isopropanol, 318.15 K) was 0.00433 and the solubility (mole fraction) (in isopropanol, 323.15 K) was 0.00642. It also gave a solubility (mole fraction) (in isopropanol, 328.15 K) of 0.00934, a solubility (mole fraction) (in methanol, 283.15 K) of 0.0202 and a solubility (mole fraction) (in methanol, 288.15 K) of 0.024. For the same molecule, the solubility (mole fraction) (in methanol, 293.15 K) was 0.0293, the solubility (mole fraction) (in methanol, 298.15 K) was 0.0349 and the solubility (mole fraction) (in methanol, 303.15 K) was 0.0448. For the same molecule, the solubility (mole fraction) (in methanol, 308.15 K) was 0.0547, the solubility (mole fraction) (in methanol, 313.15 K) was 0.0652 and the solubility (mole fraction) (in methanol, 318.15 K) was 0.08. It also gave a solubility (mole fraction) (in methanol, 323.15 K) of 0.0934, a solubility (mole fraction) (in methanol, 328.15 K) of 0.111 and a solubility (mole fraction) (in water, 283.15 K) of 0.00738. For the same molecule, the solubility (mole fraction) (in water, 288.15 K) was 0.00886, the solubility (mole fraction) (in water, 293.15 K) was 0.0111 and the solubility (mole fraction) (in water, 298.15 K) was 0.0151. It also gave a solubility (mole fraction) (in water, 303.15 K) of 0.021, a solubility (mole fraction) (in water, 308.15 K) of 0.0286 and a solubility (mole fraction) (in water, 313.15 K) of 0.0382. It also gave a solubility (mole fraction) (in water, 318.15 K) of 0.0504, a solubility (mole fraction) (in water, 323.15 K) of 0.0633 and a solubility (mole fraction) (in water, 328.15 K) of 0.0807.
